Tested on: desired test plant species
Assay: Foliar-applied postemergence herbicidal activity in direct seeded rice (Table 6)
Assay type: in vivo
Details: 21 DAA
Source text: Seeds or nutlets of the desired test plant species were planted in a soil matrix prepared by mixing a loam soil (43 percent silt, 19 percent clay, and 38 percent sand, with a pH of about 8.1 and an organic matter content of about 1.5 percent) and river sand in an 80 to 20 ratio. The soil matrix was contained in plastic pots with a surface area of 139.7 cm^2. When required to ensure good germination and healthy plants, a fungicide treatment and/or other chemical or physical treatment was applied. The plants were grown for 10-17 d in a greenhouse with an approximate 14-h photoperiod which was maintained at about 29° C. during the day and 26° C. during the night. Nutrients and water were added on a regular basis and supplemental lighting was provided with overhead metal halide 1000-Watt lamps as necessary. The plants were employed for testing when they reached the second or third true leaf stage. Treatments consisted of compounds 45, 34, and 66. Weighed amounts of technical compounds were placed in individual 25 mL glass vials and dissolved in 8 mL of 97:3 v/v acetone-DMSO to obtain stock solutions. […] The spray application solutions were prepared by removing 4 mL of the stock solution and diluting with 4 mL of 97:3 v/v acetone-DMSO and continued serial dilution to obtain 1⁄2×, 1⁄4×, 1⁄8×, and 1/16× rates of the high rate. Spray solutions were diluted to the appropriate final concentrations with the addition of 8 mL of an aqueous mixture of 1.875% (v/v) Agri-dex crop oil concentrate. The final 12-mL spray solutions each contained 1.25% (v/v) Agri-dex crop oil concentrate, 32.3% acetone, and 1.0% DMSO. Compound requirements are based upon a 12 mL application volume at a rate of 187 L/ha. Spray solutions were applied to the plant material with an overhead Mandel track sprayer equipped with […] nozzles calibrated to deliver 187 L/ha over an application area of 0.503 square meters (m^2) at a spray height of 18 inches ([…]) above average plant canopy height. Control plants were sprayed in the same manner with the solvent blank. The treated plants and control plants were placed in a greenhouse as described above and watered by sub-irrigation to prevent wash-off of the test compounds. After approximately 3 weeks, the condition of the test plants, compared with that of the untreated plants, was determined visually and scored on a scale of 0 to 100 percent where 0 corresponds to no injury and 100 corresponds to complete kill. By applying the well-accepted probit analysis as described by J. Berkson in Journal of the […], 48, 565 (1953) and by D. Finney in “Probit Analysis” Cambridge University Press (1952) or by plotting the mean data and fitting a logarithmic curve to the portion of the data where there was a dose response using Microsoft Excel®, the above data can be used to calculate GR50 and GR90 values, which are defined as growth reduction factors that correspond to the effective dose of herbicide required to kill or control 50 percent or 90 percent, respectively, of a target plant.

COC(=O)c1nc(-c2ccc(Cl)c(OC)c2F)c(F)c(N)c1OC [Compound 34]
Mean Visual Injury (%)-21 Days After Application AESSE (AESSE (Aeschynomene sensitiva, sensitive jointvetch), 4.38 g ae/ha): 100% | Mean Visual Injury (%)-21 Days After Application AESSE (AESSE (Aeschynomene sensitiva, sensitive jointvetch), 8.75 g ae/ha): 100% | Mean Visual Injury (%)-21 Days After Application AESSE (AESSE (Aeschynomene sensitiva, sensitive jointvetch), 17.5 g ae/ha): 100% | Mean Visual Injury (%)-21 Days After Application AESSE (AESSE (Aeschynomene sensitiva, sensitive jointvetch), 35 g ae/ha): 100% | Mean Visual Injury (%)-21 Days After Application AESSE (AESSE (Aeschynomene sensitiva, sensitive jointvetch), 70 g ae/ha): 100% | GR50 AESSE (AESSE (Aeschynomene sensitiva, sensitive jointvetch), dose to kill or control 50 percent): <4.38 g ae/ha | GR90 AESSE (AESSE (Aeschynomene sensitiva, sensitive jointvetch), dose to kill or control 90 percent): <4.38 g ae/ha | Mean Visual Injury (%)-21 Days After Application BRAPP (BRAPP (Brachiaria platyphylla, broadleaf signalgrass), 4.38 g ae/ha): 73% | Mean Visual Injury (%)-21 Days After Application BRAPP (BRAPP (Brachiaria platyphylla, broadleaf signalgrass), 8.75 g ae/ha): 77% | Mean Visual Injury (%)-21 Days After Application BRAPP (BRAPP (Brachiaria platyphylla, broadleaf signalgrass), 17.5 g ae/ha): 93% | Mean Visual Injury (%)-21 Days After Application BRAPP (BRAPP (Brachiaria platyphylla, broadleaf signalgrass), 35 g ae/ha): 92% | Mean Visual Injury (%)-21 Days After Application BRAPP (BRAPP (Brachiaria platyphylla, broadleaf signalgrass), 70 g ae/ha): 93% | GR50 BRAPP (BRAPP (Brachiaria platyphylla, broadleaf signalgrass), dose to kill or control 50 percent): <4.38 g ae/ha | GR90 BRAPP (BRAPP (Brachiaria platyphylla, broadleaf signalgrass), dose to kill or control 90 percent): 30.2 g ae/ha | Mean Visual Injury (%)-21 Days After Application CYPDI (CYPDI (Cyperus difformis, small-flower flatsedge), 4.38 g ae/ha): 87% | Mean Visual Injury (%)-21 Days After Application CYPDI (CYPDI (Cyperus difformis, small-flower flatsedge), 8.75 g ae/ha): 95% | Mean Visual Injury (%)-21 Days After Application CYPDI (CYPDI (Cyperus difformis, small-flower flatsedge), 17.5 g ae/ha): 100% | Mean Visual Injury (%)-21 Days After Application CYPDI (CYPDI (Cyperus difformis, small-flower flatsedge), 35 g ae/ha): 100% | Mean Visual Injury (%)-21 Days After Application CYPDI (CYPDI (Cyperus difformis, small-flower flatsedge), 70 g ae/ha): 100% | GR50 CYPDI (CYPDI (Cyperus difformis, small-flower flatsedge), dose to kill or control 50 percent): <4.38 g ae/ha | GR90 CYPDI (CYPDI (Cyperus difformis, small-flower flatsedge), dose to kill or control 90 percent): 5.8 g ae/ha | Mean Visual Injury (%)-21 Days After Application CYPES (CYPES (Cyperus esculentus, yellow nutsedge), 4.38 g ae/ha): 73% | Mean Visual Injury (%)-21 Days After Application CYPES (CYPES (Cyperus esculentus, yellow nutsedge), 8.75 g ae/ha): 73% | Mean Visual Injury (%)-21 Days After Application CYPES (CYPES (Cyperus esculentus, yellow nutsedge), 17.5 g ae/ha): 85% | Mean Visual Injury (%)-21 Days After Application CYPES (CYPES (Cyperus esculentus, yellow nutsedge), 35 g ae/ha): 95% | Mean Visual Injury (%)-21 Days After Application CYPES (CYPES (Cyperus esculentus, yellow nutsedge), 70 g ae/ha): 100% | GR50 CYPES (CYPES (Cyperus esculentus, yellow nutsedge), dose to kill or control 50 percent): <4.38 g ae/ha | GR90 CYPES (CYPES (Cyperus esculentus, yellow nutsedge), dose to kill or control 90 percent): 27.4 g ae/ha | Mean Visual Injury (%)-21 Days After Application CYPIR (CYPIR (Cyperus iria, rice flatsedge), 4.38 g ae/ha): 83% | Mean Visual Injury (%)-21 Days After Application CYPIR (CYPIR (Cyperus iria, rice flatsedge), 8.75 g ae/ha): 97% | Mean Visual Injury (%)-21 Days After Application CYPIR (CYPIR (Cyperus iria, rice flatsedge), 17.5 g ae/ha): 98% | Mean Visual Injury (%)-21 Days After Application CYPIR (CYPIR (Cyperus iria, rice flatsedge), 35 g ae/ha): 100% | Mean Visual Injury (%)-21 Days After Application CYPIR (CYPIR (Cyperus iria, rice flatsedge), 70 g ae/ha): 100% | GR50 CYPIR (CYPIR (Cyperus iria, rice flatsedge), dose to kill or control 50 percent): <4.38 g ae/ha | GR90 CYPIR (CYPIR (Cyperus iria, rice flatsedge), dose to kill or control 90 percent): 6.7 g ae/ha | Mean Visual Injury (%)-21 Days After Application ECHCG (ECHCG (Echinochloa crus-galli, barnyardgrass), 4.38 g ae/ha): 93% | Mean Visual Injury (%)-21 Days After Application ECHCG (ECHCG (Echinochloa crus-galli, barnyardgrass), 8.75 g ae/ha): 93% | Mean Visual Injury (%)-21 Days After Application ECHCG (ECHCG (Echinochloa crus-galli, barnyardgrass), 17.5 g ae/ha): 96% | Mean Visual Injury (%)-21 Days After Application ECHCG (ECHCG (Echinochloa crus-galli, barnyardgrass), 35 g ae/ha): 98% | Mean Visual Injury (%)-21 Days After Application ECHCG (ECHCG (Echinochloa crus-galli, barnyardgrass), 70 g ae/ha): 95% | GR50 ECHCG (ECHCG (Echinochloa crus-galli, barnyardgrass), dose to kill or control 50 percent): <4.38 g ae/ha | GR90 ECHCG (ECHCG (Echinochloa crus-galli, barnyardgrass), dose to kill or control 90 percent): <4.38 g ae/ha | Mean Visual Injury (%)-21 Days After Application ECHCO (ECHCO (Echinochloa colonum, junglerice), 4.38 g ae/ha): 70% | Mean Visual Injury (%)-21 Days After Application ECHCO (ECHCO (Echinochloa colonum, junglerice), 8.75 g ae/ha): 80% | Mean Visual Injury (%)-21 Days After Application ECHCO (ECHCO (Echinochloa colonum, junglerice), 17.5 g ae/ha): 92% | Mean Visual Injury (%)-21 Days After Application ECHCO (ECHCO (Echinochloa colonum, junglerice), 35 g ae/ha): 97% | Mean Visual Injury (%)-21 Days After Application ECHCO (ECHCO (Echinochloa colonum, junglerice), 70 g ae/ha): 98% | GR50 ECHCO (ECHCO (Echinochloa colonum, junglerice), dose to kill or control 50 percent): <4.38 g ae/ha | GR90 ECHCO (ECHCO (Echinochloa colonum, junglerice), dose to kill or control 90 percent): 18.6 g ae/ha | Mean Visual Injury (%)-21 Days After Application LEFCH (LEFCH (Leptochloa chinensis, Chinese sprangletop), 4.38 g ae/ha): 0% | Mean Visual Injury (%)-21 Days After Application LEFCH (LEFCH (Leptochloa chinensis, Chinese sprangletop), 8.75 g ae/ha): 17% | Mean Visual Injury (%)-21 Days After Application LEFCH (LEFCH (Leptochloa chinensis, Chinese sprangletop), 17.5 g ae/ha): 30% | Mean Visual Injury (%)-21 Days After Application LEFCH (LEFCH (Leptochloa chinensis, Chinese sprangletop), 35 g ae/ha): 40% | Mean Visual Injury (%)-21 Days After Application LEFCH (LEFCH (Leptochloa chinensis, Chinese sprangletop), 70 g ae/ha): 37% | GR50 LEFCH (LEFCH (Leptochloa chinensis, Chinese sprangletop), dose to kill or control 50 percent): >70 g ae/ha | GR90 LEFCH (LEFCH (Leptochloa chinensis, Chinese sprangletop), dose to kill or control 90 percent): >70 g ae/ha | Mean Visual Injury (%)-21 Days After Application ORYSA ‘Clearfield 171’ (ORYSA (Oryza sativa ‘Clearfield 171’, rice), 4.38 g ae/ha): 0% | Mean Visual Injury (%)-21 Days After Application ORYSA ‘Clearfield 171’ (ORYSA (Oryza sativa ‘Clearfield 171’, rice), 8.75 g ae/ha): 3% | Mean Visual Injury (%)-21 Days After Application ORYSA ‘Clearfield 171’ (ORYSA (Oryza sativa ‘Clearfield 171’, rice), 17.5 g ae/ha): 12% | Mean Visual Injury (%)-21 Days After Application ORYSA ‘Clearfield 171’ (ORYSA (Oryza sativa ‘Clearfield 171’, rice), 35 g ae/ha): 23% | Mean Visual Injury (%)-21 Days After Application ORYSA ‘Clearfield 171’ (ORYSA (Oryza sativa ‘Clearfield 171’, rice), 70 g ae/ha): 22% | GR50 ORYSA ‘Clearfield 171’ (ORYSA (Oryza sativa ‘Clearfield 171’, rice), dose to kill or control 50 percent): >70 g ae/ha | GR90 ORYSA ‘Clearfield 171’ (ORYSA (Oryza sativa ‘Clearfield 171’, rice), dose to kill or control 90 percent): >70 g ae/ha | Mean Visual Injury (%)-21 Days After Application ORYSA ‘Wells’ (ORYSA (Oryza sativa ‘Wells’, rice), 4.38 g ae/ha): 0% | Mean Visual Injury (%)-21 Days After Application ORYSA ‘Wells’ (ORYSA (Oryza sativa ‘Wells’, rice), 8.75 g ae/ha): 0% | Mean Visual Injury (%)-21 Days After Application ORYSA ‘Wells’ (ORYSA (Oryza sativa ‘Wells’, rice), 17.5 g ae/ha): 3% | Mean Visual Injury (%)-21 Days After Application ORYSA ‘Wells’ (ORYSA (Oryza sativa ‘Wells’, rice), 35 g ae/ha): 8% | Mean Visual Injury (%)-21 Days After Application ORYSA ‘Wells’ (ORYSA (Oryza sativa ‘Wells’, rice), 70 g ae/ha): 7% | GR50 ORYSA ‘Wells’ (ORYSA (Oryza sativa ‘Wells’, rice), dose to kill or control 50 percent): >70 g ae/ha | GR90 ORYSA ‘Wells’ (ORYSA (Oryza sativa ‘Wells’, rice), dose to kill or control 90 percent): >70 g ae/ha | Mean Visual Injury (%)-21 Days After Application SCPJU (SCPJU (Scirpus juncoides, Japanese bulrush), 4.38 g ae/ha): 100% | Mean Visual Injury (%)-21 Days After Application SCPJU (SCPJU (Scirpus juncoides, Japanese bulrush), 8.75 g ae/ha): 100% | Mean Visual Injury (%)-21 Days After Application SCPJU (SCPJU (Scirpus juncoides, Japanese bulrush), 17.5 g ae/ha): 100% | Mean Visual Injury (%)-21 Days After Application SCPJU (SCPJU (Scirpus juncoides, Japanese bulrush), 35 g ae/ha): 100% | Mean Visual Injury (%)-21 Days After Application SCPJU (SCPJU (Scirpus juncoides, Japanese bulrush), 70 g ae/ha): 100% | GR50 SCPJU (SCPJU (Scirpus juncoides, Japanese bulrush), dose to kill or control 50 percent): <4.38 g ae/ha | GR90 SCPJU (SCPJU (Scirpus juncoides, Japanese bulrush), dose to kill or control 90 percent): <4.38 g ae/ha | Mean Visual Injury (%)-21 Days After Application SEBEX (SEBEX (Sesbania exaltata, hemp sesbania), 4.38 g ae/ha): 100% | Mean Visual Injury (%)-21 Days After Application SEBEX (SEBEX (Sesbania exaltata, hemp sesbania), 8.75 g ae/ha): 100% | Mean Visual Injury (%)-21 Days After Application SEBEX (SEBEX (Sesbania exaltata, hemp sesbania), 17.5 g ae/ha): 100% | Mean Visual Injury (%)-21 Days After Application SEBEX (SEBEX (Sesbania exaltata, hemp sesbania), 35 g ae/ha): 100% | Mean Visual Injury (%)-21 Days After Application SEBEX (SEBEX (Sesbania exaltata, hemp sesbania), 70 g ae/ha): 100% | GR50 SEBEX (SEBEX (Sesbania exaltata, hemp sesbania), dose to kill or control 50 percent): <4.38 g ae/ha | GR90 SEBEX (SEBEX (Sesbania exaltata, hemp sesbania), dose to kill or control 90 percent): <4.38 g ae/ha
